From paper PMC12586182 (Frontiers in Oncology, 2025)

Assays:
Assay in all cases: Kinase panel profiling at 1 µmol/L (mobility shift assay, Carna)
Format in all cases: biochemical
Conditions in all cases: 1 µmol/L of BTK inhibitor
EPHB2 = target: T1, EPHB2 (Homo sapiens, UniProt P29323)
T1 construct: purchased Carna Biosciences
T1 sequence (P29323 19-1055): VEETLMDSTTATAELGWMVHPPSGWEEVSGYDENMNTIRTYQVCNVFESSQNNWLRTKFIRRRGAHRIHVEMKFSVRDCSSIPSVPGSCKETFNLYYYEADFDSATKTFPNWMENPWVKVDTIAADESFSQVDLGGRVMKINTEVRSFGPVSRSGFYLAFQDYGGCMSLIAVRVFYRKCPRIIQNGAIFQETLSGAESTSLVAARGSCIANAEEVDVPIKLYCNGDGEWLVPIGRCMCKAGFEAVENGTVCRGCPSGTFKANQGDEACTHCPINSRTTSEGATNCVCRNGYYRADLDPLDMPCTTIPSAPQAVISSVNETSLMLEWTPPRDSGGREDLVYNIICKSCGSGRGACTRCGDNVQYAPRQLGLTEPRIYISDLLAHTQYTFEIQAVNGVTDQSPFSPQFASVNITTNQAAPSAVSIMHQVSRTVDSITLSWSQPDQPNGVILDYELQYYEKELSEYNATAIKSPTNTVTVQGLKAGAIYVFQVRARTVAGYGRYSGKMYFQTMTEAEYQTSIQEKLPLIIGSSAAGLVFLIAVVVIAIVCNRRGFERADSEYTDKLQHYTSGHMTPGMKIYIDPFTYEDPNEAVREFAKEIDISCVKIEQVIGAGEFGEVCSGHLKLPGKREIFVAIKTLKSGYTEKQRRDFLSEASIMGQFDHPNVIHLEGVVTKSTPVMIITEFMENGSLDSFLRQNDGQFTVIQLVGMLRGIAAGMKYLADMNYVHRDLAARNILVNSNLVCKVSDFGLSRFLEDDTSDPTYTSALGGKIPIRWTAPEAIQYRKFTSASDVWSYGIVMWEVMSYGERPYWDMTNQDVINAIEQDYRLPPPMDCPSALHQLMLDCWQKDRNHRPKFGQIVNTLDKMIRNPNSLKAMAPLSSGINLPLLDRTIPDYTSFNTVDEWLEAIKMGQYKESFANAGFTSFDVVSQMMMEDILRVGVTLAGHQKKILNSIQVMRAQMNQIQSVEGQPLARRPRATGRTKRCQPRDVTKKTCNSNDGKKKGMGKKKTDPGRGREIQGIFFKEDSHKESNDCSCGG

HER2 = target: T2, HER2 (Homo sapiens, UniProt P04626)
T2 construct: purchased Carna Biosciences

JAK1 = target: T3, JAK1 (Homo sapiens, UniProt P23458)
T3 construct: purchased Carna Biosciences

TIE2 = target: T4, TIE2 (Homo sapiens, UniProt Q02763)
T4 construct: purchased Carna Biosciences

CDC2/CycB1 = target: T5, CDC2/CycB1 (Homo sapiens, UniProt P06493)
T5 construct: purchased Carna Biosciences

MAPKAPK2 = target: T6, MAPKAPK2 (Homo sapiens, UniProt P49137)
T6 construct: purchased Carna Biosciences

MSK1 = target: T7, MSK1 (Homo sapiens, UniProt O75582)
T7 construct: purchased Carna Biosciences

MSK2 = target: T8, MSK2 (Homo sapiens, UniProt O75676)
T8 construct: purchased Carna Biosciences

MST1 = target: T9, MST1 (Homo sapiens, UniProt Q13043)
T9 construct: purchased Carna Biosciences
T9 sequence (Q13043 1-487): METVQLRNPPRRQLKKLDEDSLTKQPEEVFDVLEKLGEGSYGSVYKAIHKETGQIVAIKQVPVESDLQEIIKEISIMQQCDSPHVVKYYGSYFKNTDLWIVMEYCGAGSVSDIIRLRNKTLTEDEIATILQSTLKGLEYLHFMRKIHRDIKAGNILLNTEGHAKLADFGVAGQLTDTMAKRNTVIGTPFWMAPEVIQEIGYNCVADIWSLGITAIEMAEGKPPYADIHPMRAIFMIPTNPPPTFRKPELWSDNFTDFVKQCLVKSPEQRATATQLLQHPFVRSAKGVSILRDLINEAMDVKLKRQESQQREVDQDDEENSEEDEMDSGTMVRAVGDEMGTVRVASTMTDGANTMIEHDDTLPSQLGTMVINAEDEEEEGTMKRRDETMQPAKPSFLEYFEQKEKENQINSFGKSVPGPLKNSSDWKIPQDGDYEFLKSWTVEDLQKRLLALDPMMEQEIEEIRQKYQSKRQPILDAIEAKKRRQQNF

p70S6Kβ = target: T10, p70S6Kβ (Homo sapiens, UniProt Q9UBS0)
T10 construct: purchased Carna Biosciences

PHKG1 = target: T11, PHKG1 (Homo sapiens, UniProt Q16816)
T11 construct: purchased Carna Biosciences

PKCα = target: T12, PKCα (Homo sapiens, UniProt P17252)
T12 construct: purchased Carna Biosciences

PKCβ1 = target: T13, PKCβ1 (Homo sapiens, UniProt P05771)
T13 construct: purchased Carna Biosciences

PKCβ2 = target: T14, PKCβ2 (Homo sapiens, UniProt P05771)
T14 construct: purchased Carna Biosciences

PKCζ = target: T15, PKCζ (Homo sapiens, UniProt Q05513)
T15 construct: purchased Carna Biosciences
T15 sequence (Q05513 1-592): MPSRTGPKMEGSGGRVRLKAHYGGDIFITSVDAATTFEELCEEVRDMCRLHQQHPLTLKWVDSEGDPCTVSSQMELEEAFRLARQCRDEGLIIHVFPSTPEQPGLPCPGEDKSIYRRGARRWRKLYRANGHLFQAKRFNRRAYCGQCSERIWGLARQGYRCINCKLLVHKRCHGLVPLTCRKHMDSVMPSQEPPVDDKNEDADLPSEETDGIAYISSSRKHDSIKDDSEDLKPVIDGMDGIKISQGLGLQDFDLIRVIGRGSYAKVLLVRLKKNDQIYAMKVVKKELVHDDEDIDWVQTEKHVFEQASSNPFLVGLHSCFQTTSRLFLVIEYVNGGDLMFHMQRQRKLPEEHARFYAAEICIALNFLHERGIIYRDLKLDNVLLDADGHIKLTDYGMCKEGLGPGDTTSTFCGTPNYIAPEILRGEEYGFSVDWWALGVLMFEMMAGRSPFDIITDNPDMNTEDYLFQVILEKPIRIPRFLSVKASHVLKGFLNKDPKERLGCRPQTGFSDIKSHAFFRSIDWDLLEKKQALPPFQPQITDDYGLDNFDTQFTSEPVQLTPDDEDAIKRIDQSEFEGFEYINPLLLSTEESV

T4 sequence (Q02763 23-1124): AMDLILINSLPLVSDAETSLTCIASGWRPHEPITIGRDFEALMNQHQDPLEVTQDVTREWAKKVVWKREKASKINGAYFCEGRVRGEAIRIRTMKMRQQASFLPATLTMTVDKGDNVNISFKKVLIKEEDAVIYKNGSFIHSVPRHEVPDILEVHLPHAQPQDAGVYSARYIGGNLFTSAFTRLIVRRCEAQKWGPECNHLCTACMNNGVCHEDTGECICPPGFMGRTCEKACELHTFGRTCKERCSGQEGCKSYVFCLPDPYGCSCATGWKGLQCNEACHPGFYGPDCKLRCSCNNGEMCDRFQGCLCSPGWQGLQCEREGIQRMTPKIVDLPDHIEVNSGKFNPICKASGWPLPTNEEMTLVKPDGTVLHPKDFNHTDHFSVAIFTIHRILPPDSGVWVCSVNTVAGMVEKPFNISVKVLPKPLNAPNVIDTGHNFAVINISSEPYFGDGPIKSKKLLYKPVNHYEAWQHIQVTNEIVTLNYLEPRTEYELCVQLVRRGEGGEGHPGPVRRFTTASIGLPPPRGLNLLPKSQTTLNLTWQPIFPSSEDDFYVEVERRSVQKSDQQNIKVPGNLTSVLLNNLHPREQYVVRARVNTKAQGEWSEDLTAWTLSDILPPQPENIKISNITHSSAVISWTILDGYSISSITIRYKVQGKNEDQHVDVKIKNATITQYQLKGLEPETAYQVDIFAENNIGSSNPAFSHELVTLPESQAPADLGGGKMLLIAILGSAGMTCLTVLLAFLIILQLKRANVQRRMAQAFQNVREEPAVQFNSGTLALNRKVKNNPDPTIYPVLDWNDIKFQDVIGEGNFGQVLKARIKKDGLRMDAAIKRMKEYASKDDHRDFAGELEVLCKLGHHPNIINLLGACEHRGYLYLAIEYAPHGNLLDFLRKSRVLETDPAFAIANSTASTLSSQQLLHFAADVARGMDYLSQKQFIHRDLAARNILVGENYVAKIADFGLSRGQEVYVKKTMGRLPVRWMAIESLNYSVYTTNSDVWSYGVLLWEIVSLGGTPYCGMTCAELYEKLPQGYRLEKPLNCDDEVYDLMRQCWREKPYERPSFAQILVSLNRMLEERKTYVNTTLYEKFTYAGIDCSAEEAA
T2 sequence (P04626 23-1255): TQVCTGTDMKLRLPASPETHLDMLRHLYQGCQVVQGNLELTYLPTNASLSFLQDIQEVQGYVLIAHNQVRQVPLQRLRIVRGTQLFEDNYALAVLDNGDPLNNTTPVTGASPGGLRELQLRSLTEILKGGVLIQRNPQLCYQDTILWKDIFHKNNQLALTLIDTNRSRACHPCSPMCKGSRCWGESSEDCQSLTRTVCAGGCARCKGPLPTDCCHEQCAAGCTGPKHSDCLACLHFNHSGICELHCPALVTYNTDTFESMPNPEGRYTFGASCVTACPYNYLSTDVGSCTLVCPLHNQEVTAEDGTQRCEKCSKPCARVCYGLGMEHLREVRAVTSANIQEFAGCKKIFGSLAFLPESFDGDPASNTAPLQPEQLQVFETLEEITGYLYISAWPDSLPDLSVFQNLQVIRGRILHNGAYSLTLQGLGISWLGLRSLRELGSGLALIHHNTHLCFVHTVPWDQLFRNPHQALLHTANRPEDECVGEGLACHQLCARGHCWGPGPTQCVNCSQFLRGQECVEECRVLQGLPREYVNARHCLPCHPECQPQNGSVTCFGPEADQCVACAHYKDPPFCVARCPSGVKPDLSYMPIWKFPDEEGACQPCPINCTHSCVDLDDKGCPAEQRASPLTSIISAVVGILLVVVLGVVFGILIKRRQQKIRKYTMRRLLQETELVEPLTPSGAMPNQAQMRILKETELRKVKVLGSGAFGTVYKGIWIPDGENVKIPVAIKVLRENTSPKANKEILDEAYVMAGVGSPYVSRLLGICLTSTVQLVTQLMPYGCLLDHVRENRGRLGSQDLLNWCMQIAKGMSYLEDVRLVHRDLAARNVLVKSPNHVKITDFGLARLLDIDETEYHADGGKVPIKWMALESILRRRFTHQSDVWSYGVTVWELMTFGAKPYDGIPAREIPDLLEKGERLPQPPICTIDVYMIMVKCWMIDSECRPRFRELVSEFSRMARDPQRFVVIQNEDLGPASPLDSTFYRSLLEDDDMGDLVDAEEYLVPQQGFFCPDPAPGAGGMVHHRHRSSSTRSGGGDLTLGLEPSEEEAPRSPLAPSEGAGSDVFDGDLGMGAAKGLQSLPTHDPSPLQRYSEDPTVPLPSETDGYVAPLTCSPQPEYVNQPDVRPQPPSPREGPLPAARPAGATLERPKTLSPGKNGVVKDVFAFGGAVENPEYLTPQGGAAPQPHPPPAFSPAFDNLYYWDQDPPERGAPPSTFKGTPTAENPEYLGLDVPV
T13 sequence (P05771 whole entry): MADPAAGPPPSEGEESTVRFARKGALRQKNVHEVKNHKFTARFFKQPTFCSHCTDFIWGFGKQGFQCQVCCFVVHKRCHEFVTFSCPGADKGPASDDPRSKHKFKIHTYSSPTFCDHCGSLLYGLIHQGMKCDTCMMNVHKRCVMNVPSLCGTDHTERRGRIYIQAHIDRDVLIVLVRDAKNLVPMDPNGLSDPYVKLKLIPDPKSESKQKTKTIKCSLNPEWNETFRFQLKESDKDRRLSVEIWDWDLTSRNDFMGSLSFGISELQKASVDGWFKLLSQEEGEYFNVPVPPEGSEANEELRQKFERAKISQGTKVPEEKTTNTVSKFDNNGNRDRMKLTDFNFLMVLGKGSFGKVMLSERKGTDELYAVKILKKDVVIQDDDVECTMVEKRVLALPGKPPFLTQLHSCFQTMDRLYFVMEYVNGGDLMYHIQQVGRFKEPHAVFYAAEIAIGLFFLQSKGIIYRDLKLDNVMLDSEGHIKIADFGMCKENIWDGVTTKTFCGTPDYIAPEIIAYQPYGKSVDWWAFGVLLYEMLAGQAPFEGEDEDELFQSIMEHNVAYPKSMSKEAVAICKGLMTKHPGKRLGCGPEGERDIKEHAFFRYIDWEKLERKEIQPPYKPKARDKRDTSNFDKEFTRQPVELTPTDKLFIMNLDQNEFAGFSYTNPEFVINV
T3 sequence (P23458 whole entry): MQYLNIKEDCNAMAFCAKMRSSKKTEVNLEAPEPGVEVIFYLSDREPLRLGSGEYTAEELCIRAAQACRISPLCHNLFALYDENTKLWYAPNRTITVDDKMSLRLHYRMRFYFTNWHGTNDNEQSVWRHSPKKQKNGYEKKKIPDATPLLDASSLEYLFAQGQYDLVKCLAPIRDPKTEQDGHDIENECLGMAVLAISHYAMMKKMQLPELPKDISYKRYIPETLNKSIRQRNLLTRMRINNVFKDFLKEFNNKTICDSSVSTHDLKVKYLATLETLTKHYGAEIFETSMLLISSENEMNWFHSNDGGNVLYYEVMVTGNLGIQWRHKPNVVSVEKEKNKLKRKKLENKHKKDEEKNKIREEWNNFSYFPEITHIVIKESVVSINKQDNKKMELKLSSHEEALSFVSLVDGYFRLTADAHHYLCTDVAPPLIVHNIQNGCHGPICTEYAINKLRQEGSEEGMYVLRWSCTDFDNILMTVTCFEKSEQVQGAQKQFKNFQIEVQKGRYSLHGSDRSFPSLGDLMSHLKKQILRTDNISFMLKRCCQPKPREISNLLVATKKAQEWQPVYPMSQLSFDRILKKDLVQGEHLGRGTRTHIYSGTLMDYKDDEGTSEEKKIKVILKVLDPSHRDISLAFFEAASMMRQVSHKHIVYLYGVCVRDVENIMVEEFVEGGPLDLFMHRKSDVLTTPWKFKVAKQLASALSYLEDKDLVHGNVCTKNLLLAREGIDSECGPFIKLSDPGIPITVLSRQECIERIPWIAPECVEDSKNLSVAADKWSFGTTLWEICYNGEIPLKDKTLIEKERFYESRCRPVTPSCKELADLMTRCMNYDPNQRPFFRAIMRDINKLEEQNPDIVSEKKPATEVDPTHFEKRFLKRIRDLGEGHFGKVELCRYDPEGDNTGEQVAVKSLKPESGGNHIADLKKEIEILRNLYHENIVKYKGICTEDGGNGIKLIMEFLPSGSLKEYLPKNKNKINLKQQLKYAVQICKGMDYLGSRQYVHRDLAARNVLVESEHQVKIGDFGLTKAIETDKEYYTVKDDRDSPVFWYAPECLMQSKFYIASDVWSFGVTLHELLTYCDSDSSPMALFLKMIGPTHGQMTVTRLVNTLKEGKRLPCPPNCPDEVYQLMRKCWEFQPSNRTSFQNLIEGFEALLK

| SMILES | Percentage inhibition of kinase enzyme activity (EPHB2) [%] | Percentage inhibition of kinase enzyme activity (HER2) [%] | Percentage inhibition of kinase enzyme activity (JAK1) [%] | Percentage inhibition of kinase enzyme activity (TIE2) [%] | Percentage inhibition of kinase enzyme activity (CDC2/CycB1) [%] | Percentage inhibition of kinase enzyme activity (MAPKAPK2) [%] | Percentage inhibition of kinase enzyme activity (MSK1) [%] | Percentage inhibition of kinase enzyme activity (MSK2) [%] | Percentage inhibition of kinase enzyme activity (MST1) [%] | Percentage inhibition of kinase enzyme activity (p70S6Kβ) [%] | Percentage inhibition of kinase enzyme activity (PHKG1) [%] | Percentage inhibition of kinase enzyme activity (PKCα) [%] | Percentage inhibition of kinase enzyme activity (PKCβ1) [%] | Percentage inhibition of kinase enzyme activity (PKCβ2) [%] | Percentage inhibition of kinase enzyme activity (PKCζ) [%] |
| --- | --- | --- | --- | --- | --- | --- | --- | --- | --- | --- | --- | --- | --- | --- | --- |
| CC#CC(=O)N1CCC[C@H]1c1nc(-c2ccc(C(=O)Nc3ccccn3)cc2)c2c(N)nccn12 [acalabrutinib] | -0.11 | 16.11 | -12.91 | -5.36 | -0.40 | -20.51 | -7.68 | 1.53 | 3.91 | -14.17 | -4.16 | -16.89 | -10.97 | -12.04 | -5.44 |
| C=CC(=O)N1CCC[C@@H](n2nc(-c3ccc(Oc4ccccc4)cc3)c3c(N)ncnc32)C1 [ibrutinib] | 27.83 | 100.31 | -9.54 | 29.04 | -1.03 | -12.65 | -1.18 | -2.09 | 4.14 | 0.87 | 1.53 | 0.74 | -2.90 | 1.78 | 10.28 |
| O=C(c1ccc(Oc2ccccc2)cc1Cl)c1c[nH]c2ncnc(N[C@@H]3CC[C@@H](CO)OC3)c12 [nemtabrutinib] | 48.93 | 99.89 | 32.55 | 99.74 | -7.65 | -7.90 | 11.30 | 5.69 | 96.55 | 4.30 | 7.46 | -0.64 | -3.07 | -1.79 | -0.78 |
| COc1ccc(F)cc1C(=O)NCc1ccc(-c2nn([C@@H](C)C(F)(F)F)c(N)c2C(N)=O)cc1 [pirtobrutinib] | 6.14 | 35.83 | -2.12 | -3.49 | -10.48 | -13.00 | 4.32 | 1.57 | 10.97 | 10.01 | 4.81 | 11.69 | 5.78 | -8.67 | -3.38 |
| C=CC(=O)N1CCC([C@@H]2CCNc3c(C(N)=O)c(-c4ccc(Oc5ccccc5)cc4)nn32)CC1 [zanubrutinib] | -1.32 | 98.58 | -0.37 | – | – | – | 0.57 | – | – | – | – | – | – | -1.66 | – |
